The values that follow come from patent US8981094B2, “Piperidine/piperazine derivatives” (Janssen Pharmaceutica N.V., priority 2007, dated 2015).

This assay deals with T1, human DGAT1 (Homo sapiens, UniProt O75907).
T1 construct: FLAG (N); made in house; host or cells: SF9 insect cells (pFastBac baculovirus); total cell membranes
T1 sequence (O75907 1-488): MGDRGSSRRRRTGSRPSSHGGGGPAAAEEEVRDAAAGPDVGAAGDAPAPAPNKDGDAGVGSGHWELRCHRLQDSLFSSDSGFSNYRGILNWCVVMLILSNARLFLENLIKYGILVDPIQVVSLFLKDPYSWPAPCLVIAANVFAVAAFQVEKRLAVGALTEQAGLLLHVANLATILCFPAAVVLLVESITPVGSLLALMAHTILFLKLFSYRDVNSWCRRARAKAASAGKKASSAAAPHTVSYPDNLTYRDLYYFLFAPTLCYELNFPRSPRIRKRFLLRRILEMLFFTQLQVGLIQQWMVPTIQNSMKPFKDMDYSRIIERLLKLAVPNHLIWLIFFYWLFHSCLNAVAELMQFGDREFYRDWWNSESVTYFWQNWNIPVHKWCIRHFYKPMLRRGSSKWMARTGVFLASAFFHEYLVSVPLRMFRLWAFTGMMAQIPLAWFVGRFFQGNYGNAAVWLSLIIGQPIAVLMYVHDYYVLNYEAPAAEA
Kind of assay: Inhibition of DGAT1 activity, FlashPlate assay with DGAT1 membrane preparations and substrate micelles. The assay is classed as biochemical. As to conditions: pIC50 = -logIC50, IC50 values expressed in M. An excerpt:
A) Measurement of Inhibition of DGAT1 Activity by the Present Compounds
The inhibiting activity of the present compounds on DGAT1 activity was screened in a single well procedure assay using DGAT1 comprising membrane preparations and DGAT1 substrate comprising micelles and determining formed radio-active triacylglycerol coming in close proximity of a flashplate surface by radio luminescence.
Said assay is described in full detail in WO2006/067071, the content of which is incorporated herein by reference.
By DGAT1 activity is meant the transfer of coenzyme A activated fatty acids to the 3-position of 1,2-diacylglycerols, thus forming a triglyceride molecule, by enzyme DGAT1.
human DGAT1 (NM012079.2) was cloned into the pFastBac vector, containing translation start, a FLAG-tag at the N-terminus as described in literature and a viral Kozak sequence (AAX) preceding the ATG to improve expression in insect cells. Expression was done as described in literature (Cases, S., Smith, S. J., Zheng, Y., Myers H. M., Lear, S. R., Sande, E., Novak, S., Collins, C., Welch, C. B., Lusis, A. J., Erickson, S. K. and Farese, R. V. (1998) Proc. Natl. Acad. Sci. USA 95, 13018-13023.) using SF9 cells.
72 h transfected SF9 cells were collected by centrifugation (13000 rpm-15 min-4° C.) and lysed in 2×500 ml lysisbuffer (0.1M Sucrose, 50 mM KCl, 40 mM KH2PO4, 30 mM EDTA pH 7.2. Cells were homogenized by cell disruptor. After centrifugation 1380 rpm-15 min-4° C. (SN discarded), pellet was resuspended in 500 ml lysisbuffer and total cell membranes collected by ultracentrifugation at 34000 rpm(100 000 g) for 60 min (4° C.). The collected membranes were resuspended in lysis buffer, divided in aliquots and stored with 10% glycerol at −80° C. until use.
Add 1 ml dioleoyl-sn-glycerol (10 mg/ml) to 10 ml of L-α-phosphatidylcholine (1 mg/ml) and 10 ml of L-α-phosphatidyl-L-serine (1 mg/ml) in a thick glass recipient. Evaporate under nitrogen and put on ice for 15 minutes. Reconstitute in 10 ml Tris/HCl (10 mM, pH 7.4) by sonication on ice. The sonification process consists of sonification cycles of 10 seconds in the sonification bath followed by 10 seconds cool down on ice and repeating this sonification cycle till a homogeneous solution is obtained (takes about 15 minutes). The thus obtained micelles are stored at −20° C. till later use and contain DAG at a final concentration of 1.61 mM.
c) Substrate mix (for 1 384 well plate=3840 μl) • 612 μl micelles stock (51 μM final) • 16.6 μl oleoylCoA 9.7 mM • 23 μl [^3H]-oleoylCoA (49 Ci/mmol, 500 μCi/ml) • 3188.4 μl Tris pH 7.4, 10 mM
d) Enzyme mix (for 1 384 well plate=3520 μl) (5 μg/ml) • Add 11.73 μl of DGAT membrane stock (1500 μg/ml stock) to 3508 μl assay buffer.
e) Stop mix (for 1 384 well plate=7.68 ml) (250 mM) • Add 384 μl of N-ethylmaleimide (5M) to 3.456 ml DMSO 100%, and further dilute 3.84 ml of said solution with 3.84 ml DMSO 10%.
DGAT activity in membrane preparations was assayed in 50 mM Tris-HCl (pH 7.4), 150 mM MgCl2, 1 mM EDTA and 0.2% BSA, containing 50 μM DAG, 32 μg/ml PC/PS and 8.4 μM [^3H]-oleoylCoA (at a specific activity of 30 nCi/well) in a final volume of 50 μl in 384-well format using the red shifted Basic Image FlashPlate™ (Perkin Elmer Cat.No. SMP400).
In detail, 10 μl enzyme mix and 10 μl substrate mix were added to 30 μl of assay buffer, optionally in the presence of 1 μl DMSO (blank and controls) or 1 μl of the compound to be tested. This reaction mixture was incubated for 120 minutes at 37° C. and the enzymatic reaction stopped by adding 20 μl of the stop mix. The plates were sealed and the vesicles allowed to settle overnight at room temperature. Plates were centrifuged for 5 minutes at 1500 rpm and measured in Leadseeker. […]
For `O=C(CN1CCOCC1)Nc1ccc(C2CCN(C(=O)Nc3c(Cl)cccc3Cl)CC2)cc1` [Compound 111], the IC50 (in general, the concentration that inhibits the measured activity by half) is 1200 nM. The same measure for `O=C(CN1CCCCC1)Nc1ccc(C2CCN(C(=O)Nc3c(Cl)cccc3Cl)CC2)cc1` [Compound 112]: 794 nM; for `CCCCCCCNCC(=O)Nc1ccc(C2CCN(C(=O)Nc3c(Cl)cccc3Cl)CC2)cc1` [Compound 115]: 204 nM.

For the compound `O=C(CNCC1CC1)Nc1ccc(C2CCN(C(=O)Nc3c(Cl)cccc3Cl)CC2)cc1` [Compound 116], the IC50 was 575 nM.

In the case of `O=C(CNCc1ccccc1)Nc1ccc(C2CCN(C(=O)Nc3c(Cl)cccc3Cl)CC2)cc1` [Compound 117], 214 nM corresponded to half-maximal inhibition (IC50). The same measure for `O=C(CNCc1ccc(F)cc1)Nc1ccc(C2CCN(C(=O)Nc3c(Cl)cccc3Cl)CC2)cc1` [Compound 118]: 347 nM. Consider `O=C(CNCc1ccco1)Nc1ccc(C2CCN(C(=O)Nc3c(Cl)cccc3Cl)CC2)cc1` [Compound 119], for which half-maximal inhibition (IC50) required 389 nM. In the case of `N#CCCNCC(=O)Nc1ccc(C2CCN(C(=O)Nc3c(Cl)cccc3Cl)CC2)cc1` [Compound 121] it was 3800 nM. The same measure for `CCCNCC(=O)Nc1ccc(C2CCN(C(=O)Nc3c(Cl)cccc3Cl)CC2)cc1` [Compound 122]: 562 nM; for `O=C(Cn1ccnc1)Nc1ccc(C2CCN(C(=O)Nc3c(Cl)cccc3Cl)CC2)cc1` [Compound 123]: 871 nM. `O=C(CC1CCCCC1)Nc1ccc(C2CCN(C(=O)Nc3c(Cl)cccc3Cl)CC2)cc1` [Compound 124] showed a half-maximal inhibitory concentration (IC50) of 166 nM. `O=C(CCN1CCOCC1)Nc1ccc(C2CCN(C(=O)Nc3c(Cl)cccc3Cl)CC2)cc1` [Compound 125]: the IC50 was 646 nM. In the case of `COC(=O)CCCC(=O)Nc1ccc(C2CCN(C(=O)Nc3c(Cl)cccc3Cl)CC2)cc1` [Compound 126] it was 67.6 nM; in that of `O=C(CCN1CCCCC1)Nc1ccc(C2CCN(C(=O)Nc3c(Cl)cccc3Cl)CC2)cc1` [Compound 128], 2090 nM. In the case of `C#CCCC(=O)Nc1ccc(C2CCN(C(=O)Nc3c(Cl)cccc3Cl)CC2)cc1` [Compound 129] it was 245 nM; in that of `CCCCC(=O)Nc1ccc(C2CCN(C(=O)Nc3c(Cl)cccc3Cl)CC2)cc1` [Compound 130], 38 nM; in that of `O=C(CCc1ccccc1)Nc1ccc(C2CCN(C(=O)Nc3c(Cl)cccc3Cl)CC2)cc1` [Compound 131], 25.7 nM.

In turn, `O=C(Cc1ccsc1)Nc1ccc(C2CCN(C(=O)Nc3c(Cl)cccc3Cl)CC2)cc1` [Compound 132] had an IC50 of 44.7 nM. Compound `O=C(CCc1ccco1)Nc1ccc(C2CCN(C(=O)Nc3c(Cl)cccc3Cl)CC2)cc1` [Compound 133] gave an IC50 of 38 nM. Take `COc1ccc(CC(=O)Nc2ccc(C3CCN(C(=O)Nc4c(Cl)cccc4Cl)CC3)cc2)cc1` [Compound 134]: the IC50 was 15.5 nM. The same measure for `O=C(CCN1CCOCC1)Nc1ccc(N2CCN(C(=O)Nc3c(Cl)cccc3Cl)CC2)cc1` [Compound 136]: 389 nM; for `CN(C)C(=O)CCC(=O)Nc1ccc(N2CCN(C(=O)Nc3c(Cl)cccc3Cl)CC2)cc1` [Compound 137]: 3390 nM. In turn, `C#CCCC(=O)Nc1ccc(N2CCN(C(=O)Nc3c(Cl)cccc3Cl)CC2)cc1` [Compound 139] had an IC50 of 120 nM. With `CCCCC(=O)Nc1ccc(N2CCN(C(=O)Nc3c(Cl)cccc3Cl)CC2)cc1` [Compound 140], the midpoint of inhibition, the IC50, lay at 19.1 nM. The same measure for `O=C(Cc1ccsc1)Nc1ccc(N2CCN(C(=O)Nc3c(Cl)cccc3Cl)CC2)cc1` [Compound 142]: 13.8 nM.

In turn, `O=C(CCc1ccco1)Nc1ccc(N2CCN(C(=O)Nc3c(Cl)cccc3Cl)CC2)cc1` [Compound 143] showed an IC50 of 18.2 nM. `COc1ccc(CC(=O)Nc2ccc(N3CCN(C(=O)Nc4c(Cl)cccc4Cl)CC3)cc2)cc1` [Compound 144] had an IC50 of 5.75 nM. The same measure for `COC(=O)CCCC(=O)Nc1ccc(N2CCN(C(=O)Nc3c(Cl)cccc3Cl)CC2)cc1` [Compound 145]: 55 nM.
